Where two headings read alike, the source gives them in different places. Marks after values point to notes of the source that are not given here.
Columns and labels:
[1] = test system: gouty arthritis rats (sodium urate, right ankle and knee joint cavities); experiment: Pharmacodynamics experiment B on gouty arthritis rats: ankle swelling rate; assay type: in vivo, SD rats; conditions: Rattus norvegicus, po, dose 0.6 mg/kg gavage, read-out: Swelling rate (ankle)
Outline: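 Male SD rats dosed by gavage at 0.6 mg/kg (0.5% CMC-Na suspension) daily for 7 days before and 3 days after injection of 0.2 mL sodium urate solution into right ankle and knee joints. Ankle circumference measured before and 2-48 h after modeling; swelling rate = swelling degree/baseline ×100%, mean values.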

TNF-α = experiment: Inflammatory factor experiment B: TNF-α in knee synovial tissue (ELISA); assay type: in vivo, SD rats; conditions: Rattus norvegicus, po; synovial tissue of knee joints, 48 h after modeling; dose 0.6 mg/kg; read-out: TNF-α percentage decrease %
IL-1β = experiment: Inflammatory factor experiment B: IL-1β in knee synovial tissue (ELISA); assay type: in vivo, SD rats; conditions: Rattus norvegicus, po; synovial tissue of knee joints, 48 h after modeling; dose 0.6 mg/kg; read-out: IL-1β percentage decrease %
[2] = test system: gouty arthritis rats (sodium urate, right ankle and knee joint cavities); experiment: Pharmacodynamics experiment B on gouty arthritis rats: gait score; assay type: in vivo, SD rats; conditions: for Gait Score: dose 0.6 mg/kg gavage, mean; for Gait versus model group, in words: compounds 0.6 mg/kg, colchicine 0.6 and 1.2 mg/kg
Outline: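 Male SD rats (180-220 g) received test compounds by gavage as 0.5% CMC-Na suspensions, once daily for 7 days before modeling and for 3 days afterward. Gouty arthritis was induced by injecting 0.2 mL sodium urate solution into the right ankle and knee joint cavities. Gait was graded 0-3 using modified Coderre criteria, and group mean scores were compared with the model group by ANOVA-Dunnett T-test (P<0.05).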

[3] = Acute toxicity test in mice by single administration; assay type: in vivo, ICR mice; conditions: both sexes, ICR, mouse, in vivo, po; acute toxicity, mice, single gavage; read-out: Maximum tolerated dose (MTD)
Experimental: (§1) Compounds 34, 48, 55 and 58 were ground with 0.5% CMC-Na before administration, and prepared into a suspension of the corresponding concentration for gavage, with an administration volume of 0.1 mL/10 g.
(§2) ICR mice, SPF grade, weighing 18-20 g, 6-8 weeks old, were provided by Nantong University. The Laboratory Animal Production License was SCXK (Su) 2016-0010 and Laboratory Animal Use License was SYXK (Su) 2017-0035.
(§3) After overnight fasting, the drug was administered once by gavage in a volume of 0.1 mL/10 g. The normal group was given the corresponding volume of 0.5% CMC-Na solution according to body weight. The state of the animal was observed after administration, the animals were weighed daily and the number of deaths was recorded for 14 consecutive days.

ICR mice = experiment: as above; assay type: in vivo; conditions: 14 days, deaths/animals
Experimental: as §1, §2, §3

IL-6 = experiment: Inflammatory factor experiment B: IL-6 in knee synovial tissue (ELISA); assay type: in vivo, SD rats; conditions: Rattus norvegicus, po; synovial tissue of knee joints, 48 h after modeling; dose 0.6 mg/kg; read-out: IL-6 percentage decrease %
[4] = In vivo pharmacokinetics in SD rats; conditions: Sprague-Dawley, rat; for F / AUC(0-inf) / MRT inf / Vd / clearance / Cmax / Tmax: in vivo; for half-life: plasma, read-out: t1/2 (converted)
Experimental: Compound stock solution preparation: an appropriate amount of solid powder of the compounds were weighed separately, a certain amount of DMSO was added and 20 mg/mL of stock solution was obtained under vortex ultrasound.
Preparation of test compound for gavage: an appropriate amount of compound stock solution was taken by pipette, a certain amount of Solutol HS15 solution was added, the mixture was vortexed for 1 minute, then a certain amount of saline was added, and 1 mg/mL of solution was obtained after mixing well.
Preparation of test compounds for intravenous injection: an appropriate amount of compound stock solution was taken by pipette separately, a certain amount of Solutol HS15 solution was added, the mixture was vortexed for 1 minute, then a certain amount of physiological saline was added and a solution of 0.5 mg/mL was obtained after mixing well.
The animals were fasted overnight before administration by gavage, and food was given 4 hours after administration, during which they were free to drink. Two groups were set for each test compound, intravenous injection group and oral administration group, and the dose and mode of administration were shown in Table 12 below.
The blood samples were centrifuged at 4° C. for 5 min at 2,000 g to separate the plasma. The plasma samples were analyzed by LC/MS/MS to detect the concentration of each test compound in the plasma samples.
The parameters related to the […] were obtained by calculations with WinNonlin® Professional software.

[5] = Intravenous injection - 1 mg/kg

SMILES	change in vivo at 0.6 mg/kg ([1]; 2 h)	change in vivo at 0.6 mg/kg ([1]; 4 h)	change in vivo at 0.6 mg/kg ([1]; 8 h)	change in vivo at 0.6 mg/kg ([1]; 10 h)	change in vivo at 0.6 mg/kg ([1]; 24 h)	change in vivo at 0.6 mg/kg ([1]; 48 h)	inhibition in vivo at 0.6 mg/kg (TNF-α)	inhibition in vivo at 0.6 mg/kg (IL-1β)	Gait Score ([2]; 2 h)	Gait Score ([2]; 4 h)	Gait Score ([2]; 8 h)	Gait Score ([2]; 10 h)	Gait Score ([2]; 24 h)	Gait Score ([2]; 48 h)	MTD at 14 days [3]	Mortality rate (ICR mice; single gavage dose 50 mg/kg)	Mortality rate (ICR mice; single gavage dose 100 mg/kg)	Mortality rate (ICR mice; single gavage dose 400 mg/kg)	Mortality rate (ICR mice; single gavage dose 600 mg/kg)	inhibition in vivo at 0.6 mg/kg (IL-6)	also measured
COC(=O)c1ccc2c(cc1=O)[C@@H](NC(C)=O)CCc1cc(OC)c(OC)c(OC)c1-2 [Compound 34, methyl (S)-7-acetamido-1,2,3-trimethoxy-9-oxo-5,6,7,9-tetrahydrobenzo[a]heptalen-10-carboxylate]	3.98%	8.32%	16.2%	17.3%	21.1%	9.96%	82.9%	93.1%	0	0	0**	0.1**	0	0	> 600 mg/kg	0/6	0/6	0/6	0/6	115%	Gait versus model group, in words [2]: significant improvement in gait occurred at different time points
CNC(=O)c1ccc2c(cc1=O)[C@@H](NC(C)=O)CCc1cc(OC)c(OC)c(OC)c1-2 [Compound 48, (S)-7-acetamido-1,2,3-trimethoxy-N-methyl-9-oxo-5,6,7,9-tetrahydrobenzo[a]heptalene-10-carboxamide]	9.42%	15.5%	21%	21.5%	22.4%	13.6%	81.6%	82.2%	0	0.1	0.1**	0**	0*	0	> 600 mg/kg	0/6	0/6	0/6	0/6	110%	Gait versus model group, in words [2]: significant improvement in gait occurred at different time points; F ([4]; 10 mg/kg): 57.0%; AUC(0-inf) ([4]; iv, 1 mg/kg): 580 ng·h/mL; MRT inf ([4]; iv, 1 mg/kg): 0.641 h; Vd ([4]; iv, 1 mg/kg): 1.11 L/kg; clearance ([4]; iv, 1 mg/kg): 29.2 mL/min/kg; AUC(0-inf) ([4]; po, 10 mg/kg): 3300 ng·h/mL; Cmax ([4]; po, 10 mg/kg): 1930 ng/mL; MRT inf ([4]; po, 10 mg/kg): 1.83 h; Tmax ([4]; po, 10 mg/kg): 0.25 h; half-life ([4]; po, Gavage - 10 mg/kg): 1.61 h; half-life [4, 5]: 0.536 h
CCNC(=O)c1ccc2c(cc1=O)[C@@H](NC(C)=O)CCc1cc(OC)c(OC)c(OC)c1-2 [Compound 55, (S)-7-acetamido-1,2,3-trimethoxy-N-ethyl-9-oxo-5,6,7,9-tetrahydrobenzo[a]heptalen-10-carboxamide]							86.4%	133%							> 600 mg/kg	0/6	0/6	0/6	0/6	128%	F ([4]; 10 mg/kg): 115%; AUC(0-inf) ([4]; iv, 1 mg/kg): 543 ng·h/mL; MRT inf ([4]; iv, 1 mg/kg): 0.592 h; Vd ([4]; iv, 1 mg/kg): 1.1 L/kg; clearance ([4]; iv, 1 mg/kg): 31.2 mL/min/kg; AUC(0-inf) ([4]; po, 10 mg/kg): 6260 ng·h/mL; Cmax ([4]; po, 10 mg/kg): 2040 ng/mL; MRT inf ([4]; po, 10 mg/kg): 2.72 h; Tmax ([4]; po, 10 mg/kg): 0.333 h; half-life ([4]; po, Gavage - 10 mg/kg): 2.02 h; half-life [4, 5]: 0.6 h
COc1cc2c(c(OC)c1OC)-c1ccc(C(=O)Nc3ccccc3)c(=O)cc1[C@@H](NC(C)=O)CC2 [Compound 58, (S)-7-acetamido-1,2,3-trimethoxy-N-phenyl-9-oxo-5,6,7,9-tetrahydrobenzo[a]heptalen-10-carboxamide]	6.48%	13.8%	17.2%	20.4%	18.1%	8.42%	80.5%	87.5%	0	0*	0.3	0.2**	0	0	> 600 mg/kg	0/6	0/6	0/6	0/6	86.7%	Gait versus model group, in words [2]: significant improvement in gait occurred at different time points; F ([4]; 10 mg/kg): 109%; AUC(0-inf) ([4]; iv, 1 mg/kg): 1390 ng·h/mL; MRT inf ([4]; iv, 1 mg/kg): 2.04 h; Vd ([4]; iv, 1 mg/kg): 1.44 L/kg; clearance ([4]; iv, 1 mg/kg): 12.1 mL/min/kg; AUC(0-inf) ([4]; po, 10 mg/kg): 15100 ng·h/mL; Cmax ([4]; po, 10 mg/kg): 2040 ng/mL; MRT inf ([4]; po, 10 mg/kg): 4.58 h; Tmax ([4]; po, 10 mg/kg): 2.67 h; half-life ([4]; po, Gavage - 10 mg/kg): 2.22 h; half-life [4, 5]: 1.92 h
